Measurements: paper PMC8855368 (Journal of medicinal chemistry, 2019)
pIC50: −log10 of the molar value.

How the values were obtained:
GSTO1–1 = biological target: T1, GSTO1–1 (Homo sapiens, UniProt P78417); details: GSTO1–1 binding assay
T1 sequence (P78417 1-241): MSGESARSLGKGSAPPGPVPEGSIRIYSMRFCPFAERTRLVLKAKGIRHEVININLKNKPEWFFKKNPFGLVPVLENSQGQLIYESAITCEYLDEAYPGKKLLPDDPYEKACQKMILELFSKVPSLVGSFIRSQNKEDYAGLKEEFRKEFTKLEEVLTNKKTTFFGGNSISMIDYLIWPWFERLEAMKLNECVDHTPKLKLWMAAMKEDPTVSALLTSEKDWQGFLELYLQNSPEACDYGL

HCT116 = assay: MTT cell viability assay, HCT116; type: cell-based; details: read-out: IC50-MTT HCT116; HCT116, 72 h; values of two independent experiments
[1] = Stability in 20% acetonitrile/PBS buffer by LC–MS; type: physicochemical; details: room temperature overnight

Row | GSTO1–1 binding activity (in words) (GSTO1–1) | Structure (SMILES) | also measured
1 |  | C=CC(=O)Nc1nc(-c2ccc(O)cc2)cs1 [Compound 25, N-(4-(4-Hydroxylphenyl)thiazol-2-yl)acrylamide] | pIC50 (HCT116): 5.15
2 |  | C=CC(=O)N(Cc1cc(C)no1)c1nc(-c2ccccc2O)cs1 [Compound 49, N-((3-Methylisoxazol-5-yl)methyl)-N-(4-(2-hydroxylphenyl)thiazol-2-yl)acrylamide] | stability in 20% acetonitrile/PBS buffer solution [1]: good stability
3 | inactive | C=CC(=O)Nc1cnn(-c2ccccc2)c1 [Compound 5, N-(1-Phenyl-1H-pyrazol-4-yl)acrylamide] | 
4 | inactive | C=CC(=O)Nc1cnn(Cc2ccccc2)c1 [Compound 6, N-(1-Benzyl-1H-pyrazol-4-yl)acrylamide] | 
5 | inactive | C=CC(=O)Nc1nc(-c2ccccc2OC)cs1 [Compound 26, N-(4-(2-Methoxyphenyl)thiazol-2-yl)acrylamide] | 

Row | Structure (SMILES) | GSTO1–1 binding activity (in words) (GSTO1–1) | also measured
6 | C=CC(=O)N1CCC(Cc2ccccc2)CC1 [Compound 8, 1-(4-Benzylpiperidin-1-yl)prop-2-en-1-one] | did not possess significant GSTO1–1 binding activity | 
7 | C=CC(=O)N1CCC(c2ccccc2)CC1 [Compound 7, 1-(4-Phenylpiperidin-1-yl)prop-2-en-1-one] | did not possess significant GSTO1–1 binding activity | 
